# Assay results as given in patent US8367695B2, “Condensed tetrahydroquinoline derivative and use thereof for medical purposes” (Mitsubishi Tanabe Pharma Corporation, priority 2007, dated 2013).
# Target: T1, human recombinant glucocorticoids receptor (GR) (Homo sapiens, UniProt P04150)
# T1 sequence (P04150 1-777): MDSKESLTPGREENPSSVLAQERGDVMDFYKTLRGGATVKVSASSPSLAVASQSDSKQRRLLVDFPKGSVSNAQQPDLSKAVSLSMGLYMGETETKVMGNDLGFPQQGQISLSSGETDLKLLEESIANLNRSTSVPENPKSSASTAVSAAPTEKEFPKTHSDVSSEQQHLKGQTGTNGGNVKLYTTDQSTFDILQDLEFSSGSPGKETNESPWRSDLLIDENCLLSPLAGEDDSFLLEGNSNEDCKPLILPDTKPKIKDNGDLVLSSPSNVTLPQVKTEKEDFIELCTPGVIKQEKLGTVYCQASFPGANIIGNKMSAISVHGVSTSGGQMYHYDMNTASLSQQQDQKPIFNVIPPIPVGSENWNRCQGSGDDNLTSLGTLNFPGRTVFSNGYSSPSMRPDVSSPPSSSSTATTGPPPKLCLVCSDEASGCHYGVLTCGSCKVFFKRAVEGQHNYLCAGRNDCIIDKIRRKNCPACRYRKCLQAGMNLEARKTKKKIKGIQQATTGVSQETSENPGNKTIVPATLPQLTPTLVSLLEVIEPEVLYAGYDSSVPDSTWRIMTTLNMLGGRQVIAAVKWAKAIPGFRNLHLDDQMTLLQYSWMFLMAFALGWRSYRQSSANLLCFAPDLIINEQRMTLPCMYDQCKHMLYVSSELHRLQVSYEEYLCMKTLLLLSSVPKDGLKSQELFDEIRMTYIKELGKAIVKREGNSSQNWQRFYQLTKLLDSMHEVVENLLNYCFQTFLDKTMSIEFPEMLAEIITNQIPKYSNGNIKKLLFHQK
# Experiment: Radioactive ligand binding test, GR cytosol, [3H]-Dex
# Conditions: not given
# Experimental: Radioactive Ligand Binding Test Using Cytosols of Human Glucocorticoids Receptor, Progesterone Receptor and Mineralocorticoid Receptor
# Opthalmol. Vis. […] In brief, cytosol preparations of human recombinant glucocorticoids receptor (GR) and human recombinant progesterone receptor-B (PRB) were purchased from Invitrogen (Carlsbad, Calif.), and a cytosol preparation of human recombinant mineralocorticoid receptor (MR) was prepared by our company (Yokohama, JP). MR cDNA was cloned into a baculovirus expression vector and expressed in insect cell Sf9. […] [^3H]-Dexamethasone (Dex, specific activity 91.0 Ci/mmol) was purchased from GE Healthcare (Buckinghamshire, UK), and [^3H]-progesterone (Prog, specific activity 103 Ci/mmol) and [3H]-aldosterone (Ald, specific activity 87.9 Ci/mmol) were each purchased from PerkinElmer (Boston, Mass.). Polypropylene round-bottomed 96 well plate was obtained from ABgene (Epsom, UK). Dimethyl Sulfoxide (DMSO) and hydrochloric acid were obtained from Kanto Chemical (TOKYO, JP). Trizma Base (Tris), Bovine Serum Albumin (BSA) and Sodium tungstate dihydrate were obtained from Sigma Chemicals (St. Louis, Mo.). Dithiothreitol (DTT) and Dextran 70 were obtained from GE Healthcare (Buckinghamshire, UK). Glycerol was obtained from Junsei Chemical (TOKYO, JP). Norit® “SX-II” was obtained from Wako Pure Chemical Industries, Ltd. (Osaka, JP). MeltiLex™, A, Printed Filtermat A and Sample Bag were obtained from PerkinElmer (Boston, Mass.).
# As a buffer for GR binding assay, 25 mM Tris-HCl (4° C., pH 7.4)/1 mM EDTA·2Na/1 mM DTT/0.1% BSA was prepared and used. As buffers for PRB and MR binding assay, 10 mM Tris-HCl (4° C., pH 7.4)/1 mM DTT/0.1% BSA/10% glycerol and 20 mM Tris-HCl (4° C., pH 7.4)/1 mM EDTA·2Na/10% glycerol/20 mM sodium tungstate were respectively prepared and used.
# Compound storage solutions (5-20 mM) were prepared using DMSO. The storage solutions were diluted with DMSO to 0.1 mM (for GR) and 0.3 mM (for PRB and MR), and further diluted 20-fold with distilled water to give solutions. Then, the preparations were diluted to each concentration with 5% DMSO solution. 1% DMSO was present at the time of the binding assay.
# GR, PRB and MR binding reactions were performed in 96 well plate (ABgene). In the case of GR binding assay, [^3H]-Dex (about 5 nM), GR cytosol (concentration of function receptor: about 4 pmol/mL), a test compound and a binding buffer were mixed in a total volume of 50 μL, and the mixture was stood at 4° C. for 30 min or longer. A specific binding was defined to be the difference in the [^3H]-Dex binding between the presence and the absence of 1 μM unlabeled Dex.
# After the reaction, 50 μL of DCC was added to each well and blended. Thereafter, the mixture was stood at 4° C. for 10 min. The plate was applied to high-speed cooling centrifuge under the conditions of 4° C., 2000 rpm, 5 min to perform B/F separation. A given amount of the supernatant was recovered, which was spotted on Filtermat A of 96 well format (PerkinElmer) and rapidly dried at a high temperature.
# Measurement of Inhibition Constant (Ki)
# Ki of the test compound was determined by the following Cheng-Prusoff equation: Ki=IC50/(1+[L*]/Kd) • wherein L* is a concentration of radioactive ligand and Kd is a dissociation constant for radioactive ligand determined by saturation analysis.
row,SMILES,Ki [nM]
1,"C=CCC1(C)C(=O)C(C)(C)Nc2c1cc(-c1cccc3cc[nH]c13)c1c2OCO1 (stereo not drawn) [Example 78, 6-allyl-4-(1H-indol-7-yl)-6,8,8-trimethyl-6,7,8,9-tetrahydro-[1,3]dioxolo[4,5-h]quinolin-7-one]",80

# Same assay, conditions: [3H]-Dex about 5 nM, GR cytosol, 4° C.; Cheng-Prusoff, Kd about 3.1 nM; read-out: GR (Ki: nM)
row,SMILES,Ki [nM]
1,"Cc1noc(C)c1-c1cc2c(c3c1CCC3)NC(C)(C)C(=O)C2(C)C [Example 2, 6-(3,5-dimethylisoxazol-4-yl)-2,2,4,4-tetramethyl-2,3,4,7,8,9-hexahydro-1H-cyclopenta[h]quinolin-3-one]",15
2,"Cc1nnn(C)c1-c1cc2c(c3c1CCC3)NC(C)(C)C(=O)C2(C)C [Example 4, 6-(3,5-dimethyl-3H-[1,2,3]triazol-4-yl)-2,2,4,4-tetramethyl-2,3,4,7,8,9-hexahydro-1H-cyclopenta[h]quinolin-3-one]",53
3,"CC1(C)Nc2c(cc(-c3ccnc4cc[nH]c34)c3c2CCC3)C(C)(C)C1=O [Example 13, 2,2,4,4-tetramethyl-6-(1H-pyrrolo[3,2-b]pyridin-7-yl)-2,3,4,7,8,9-hexahydro-1H-cyclopenta[h]quinolin-3-one]",54
4,"CC1(C)Nc2c(cc(-c3cccc4nccn34)c3c2CCC3)C(C)(C)C1=O [Example 14, 6-(imidazo[1,2-a]pyridin-5-yl)-2,2,4,4-tetramethyl-2,3,4,7,8,9-hexahydro-1H-cyclopenta[h]quinolin-3-one]",11
5,"CC1(C)Nc2c(cc(-c3cccc4nncn34)c3c2CCC3)C(C)(C)C1=O [Example 17, 2,2,4,4-tetramethyl-6-([1,2,4]triazolo[4,3-a]pyridin-5-yl)-2,3,4,7,8,9-hexahydro-1H-cyclopenta[h]quinolin-3-one]",53
6,"CC1(C)Nc2c(cc(-c3cccc4ncccc34)c3c2CCC3)C(C)(C)C1=O [Example 20, 2,2,4,4-tetramethyl-6-(quinolin-5-yl)-2,3,4,7,8,9-hexahydro-1H-cyclopenta[h]quinolin-3-one]",70
7,"CC1(C)Nc2c(cc(-c3ccnc4ncccc34)c3c2CCC3)C(C)(C)C1=O [Example 21, 2,2,4,4-tetramethyl-6-([1,8]naphthyridin-4-yl)-2,3,4,7,8,9-hexahydro-1H-cyclopenta[h]quinolin-3-one]",35
8,"C=C1C(C)(C)Nc2c(cc(-c3c(C)ncn3C)c3c2CCC3)C1(C)C [Example 29, 6-(3,5-dimethyl-3H-imidazol-4-yl)-2,2,4,4-tetramethyl-3-methylene-2,3,4,7,8,9-hexahydro-1H-cyclopenta[h]quinoline]",58
9,"C=CCC1(C)C(=O)C(C)(C)Nc2c1cc(-c1ccc(O)cc1C)c1c2CCC1 (stereo not drawn) [Example 50, 4-allyl-6-(4-hydroxy-2-methylphenyl)-2,2,4-trimethyl-2,3,4,7,8,9-hexahydro-1H-cyclopenta[h]quinolin-3-one]",97
10,"C=CCC1(C)C(=O)C(C)(C)Nc2c1cc(-c1c(C)noc1C)c1c2CCC1 (stereo not drawn) [Example 51, 4-allyl-6-(3,5-dimethylisoxazol-4-yl)-2,2,4-trimethyl-2,3,4,7,8,9-hexahydro-1H-cyclopenta[h]quinolin-3-one]",17
11,"C=CCC1(C)C(=O)C(C)(C)Nc2c1cc(-c1cccc3nccn13)c1c2CCC1 (stereo not drawn) [Example 57, 4-allyl-6-(imidazo[1,2-a]pyridin-5-yl)-2,2,4-trimethyl-2,3,4,7,8,9-hexahydro-1H-cyclopenta[h]quinolin-3-one]",14
12,"CCC1(C)C(=O)C(C)(C)Nc2c1cc(-c1cccc3nccn13)c1c2CCC1 (stereo not drawn) [Example 58, 4-ethyl-6-(imidazo[1,2-s]pyridin-5-yl)-2,2,4-trimethyl-2,3,4,7,8,9-hexahydro-1H-cyclopenta[h]quinolin-3-one]",12
13,"CC#CCC1(C)C(=O)C(C)(C)Nc2c1cc(-c1cccc3nccn13)c1c2CCC1 (stereo not drawn) [Example 63, 4-(2-butynyl)-6-(imidazo[1,2-a]pyridin-5-yl)-2,2,4-trimethyl-2,3,4,7,8,9-hexahydro-1H-cyclopenta[h]quinolin-3-one]",27
14,"Cc1noc(C)c1-c1cc2c(c3c1OCO3)NC(C)(C)C(=O)C2(C)C [Example 69, 4-(3,5-dimethylisoxazol-4-yl)-6,6,8,8-tetramethyl-6,7,8,9-tetrahydro-[1,3]dioxolo[4,5-h]quinolin-7-one]",55
15,"CC1(C)Nc2c(cc(-c3cccc4nccn34)c3c2OCO3)C(C)(C)C1=O [Example 71, 4-(imidazo[1,2-a]pyridin-5-yl)-6,6,8,8-tetramethyl-6,7,8,9-tetrahydro-[1,3]dioxolo[4,5-h]quinolin-7-one]",59
16,"CC1(C)Nc2c(cc(-c3cccc4ncccc34)c3c2OCO3)C(C)(C)C1=O [Example 72, 6,6,8,8-tetramethyl-4-(quinolin-5-yl)-6,7,8,9-tetrahydro-[1,3]dioxolo[4,5-h]quinolin-7-one]",96
17,"CC1(C)Nc2c(cc(-c3cccc4nccn34)c3c2OC(F)(F)O3)C(C)(C)C1=O [Example 82, 2,2-difluoro-4-(imidazo[1,2-a]pyridin-5-yl)-6,6,8,8-tetramethyl-6,7,8,9-tetrahydro-[1,3]dioxolo[4,5-h]quinolin-7-one]",47
18,"Cc1noc(C)c1-c1cc2c(c3c1OCC3)NC(C)(C)C(=O)C2(C)C [Example 84, 6-(3,5-dimethylisoxazol-4-yl)-2,2,4,4-tetramethyl-1,2,3,4,8,9-hexahydro-furo[2,3-h]quinolin-3-one]",27
19,"CC1(C)Nc2c(cc(-c3cccc4nccn34)c3c2CCO3)C(C)(C)C1=O [Example 88, 6-(imidazo[1,2-a]pyridin-5-yl)-2,2,4,4-tetramethyl-1,2,3,4,8,9-hexahydro-furo[2,3-h]quinolin-3-one]",19
20,"CC1(C)Nc2c(cc(-c3ccnc4ncccc34)c3c2CCO3)C(C)(C)C1=O [Example 92, 2,2,4,4-tetramethyl-6-([1,8]naphthyridin-4-yl)-1,2,3,4,8,9-hexahydro-furo[2,3-h]quinolin-3-one]",64
21,"Cc1onc(CO)c1-c1cc2c(c3ccoc13)NC(C)(C)C(=O)C2(C)C [Example 94, 6-(3-hydroxymethyl-5-methylisoxazol-4-yl)-2,2,4,4-tetramethyl-1,2,3,4-tetrahydro-furo[2,3-h]quinolin-3-one]",11
22,"CC1(C)Nc2c(cc(-c3cccc4nccn34)c3occc23)C(C)(C)C1=O [Example 98, 6-(imidazo[1,2-a]pyridin-5-yl)-2,2,4,4-tetramethyl-1,2,3,4-tetrahydro-furo[2,3-h]quinolin-3-one]",15
23,"CC1(C)Nc2c(cc(-c3cncc4nccn34)c3occc23)C(C)(C)C1=O [Example 100, 6-(imidazo[1,2-a]pyrazin-5-yl)-2,2,4,4-tetramethyl-1,2,3,4-tetrahydro-furo[2,3-h]quinolin-3-one]",85
